Data set [1] has as its system Melanoma LOX tumor. The experiment in a line: Mouse Xenograft Model (Melanoma LOX). Type of data set: in vivo. The following applies: 50 mg/kg i.p. daily for 2×6 days. The protocol:
The small molecule compound FN1-8 was tested in vivo in the mouse xenograft model bearing human cancer cells. Briefly, female athymic nude mice strain NCRNU-M (5-10 weeks old, 20-25 grams in weight; Taconic, Germantown, N.Y.) was maintained in pathogen-free conditions. Three human cancer cell lines: NSCLC H460, melanoma LOX, (both showing Gli3 activation), and colon cancer HT29 (no Gli3 activation, as a negative control), were used. Ten mice were used in each group and injected s.c. with 3×10^6 cancer cells in the dorsal area in a volume of 100 μl. After inoculation, human cancer cells were allowed to grow in mice for 7 days to become visible tumor nodules. Animals were then injected with small molecule compound FN1-8 at a dose of 50 mg/kg body weight (1 mg/mouse per day). DMSO alone was used as control. […] Tumor size was measured every three days, and tumor volumes were calculated using width (x) and length (y) (x^2y/2, where x<y). […]
In vivo efficacy study of small molecule compound FN1-8 were performed using a Mouse Xenograft Model (Melanoma Lox). […] Tumor size and tumor volumes were calculated as described above.
Three weeks after the initial tumor inoculation and the treatment as described above, tumors were dissected from the mice of each group and their weights were measured using a scale.

Data set [2] deals with human normal skin fibroblast cells (Malme-3). The experiment in a line: Time course of cell survival (flow cytometry). In kind it is cell-based. The conditions noted are these: 10 μM or 20 μM, after 6 days. On the procedure:
To investigate whether small molecule compounds of the present invention, e.g., FN1-8, specifically kill cancer cells, time course experiments of cell survival after administration of 10 μM and 20 μM of FN1-8 were also conducted using human normal skin fibroblast cells (Malme-3).

Entries after “also recorded” stand apart in the source; their conditions may differ.

Here are results for one compound from patent publication US7714014B2, “Targeting GLI proteins in human cancer by small molecules” (The Regents of the University of California, priority 2005, dated 2010).

On to `O=C(NCCc1ccc(O)cc1)C1C(c2ccccc2)=NN(c2ccccc2)C1c1ccccc1` (stereo not drawn) [FN1-8, N-(2-(4-Hydroxyphenyl)ethyl)-1,3,5-triphenyl-4,5-dihydro-pyrazole-4-carboxyamide], for which the tumor growth entry in data set [1] was “dramatically suppressed; also recorded: significantly suppressed”. The tumor weight result in data set [1] (three weeks after inoculation) was “dramatically decreased”. In addition, the “cell killing in normal cells” value in data set [2] is “no cell killing”.
